The results in this text go back to patent publication US20150065494A1, “AMINOSTYRYLBENZOFURAN DERIVATIVES AS INHIBITORS AGAINST BETA-AMYLOID FIBRIL FORMATION, AND PHARMACEUTICAL COMPOSITION COMPRISING SAME” (KOREA INSTITUTE OF SCIENCE AND TECHNOLOGY, priority 2012, published 2015).

Data set [1] is described as follows: Pharmacokinetics test (blood concentration) in mice and rats. It is filed as in vivo, ICR mice and SD rats. On the procedure:
Three 7 week-old ICR mice (weight: approximately 30 g) and three 8 week-old SD rats (weight: approximately 250 g) were used per test group. A solution prepared by dissolving a hydrochloride salt of the compound of Example 3 in excipient (DMSO/Tween 20/saline: 0.1/0.6/2.3, v/v/v) or distilled water was administered to each experimental animal. The test compound was intravenously administered in an amount of 5 mL per kg of body weight through the fine vein or orally administered in an amount of 10 mL per kg of body weight.
At 0.5, 1, 2, 4, 10, and 24 hrs after the oral administration of the test compounds, the blood was collected from periorbital veins into the tube containing heparin (1000 IU/mL, 3 μL) for the mice, and from jugular veins for rats. The blood samples were centrifuged (12,000 rpm for 2 min, Eppendorf Co.) to obtain plasmas and the obtained plasmas were kept in a freezer until the analysis at −80° C.
50 μL of plasma was placed in a 2.0 mL tube with a cap (Eppendorf Co.) and acidified by adding 20 μL of 0.1% formic acid thereto. An internal standard solution and 1 mL of ethyl acetate as an extract solvent were added to the resulting solution. The resulting solution was mixed by using a thermomixer (Eppendorf Co.) for 5 min at 1,400 rpm, and then subjected to centrifugation (Eppendorf Co.). The supernatant was collected and concentrated at 35° C. by using a cyclone. The residue was re-dissolved in 50 μL of mobile phase and 5 μL of the resulting solution was injected into LC/MS and analyzed.
(§1) In Table 3, “iv” refers to intravenous injection; “po” refers to per oral; “AUC plasma” refers to an area under the plasma level-time curve; “Cmax” refers to a maximum plasma concentration; “Tmax” refers to a time to reach Cmax; “BA” refers to bioavailability (%) according to Equation 2 below; “AUC Brain” refers to an area under the brain tissue level-time curve; and “AUCBrain/AUCPlasma” refers to a passage rate of the test compound to the brain.
Bioavailability (%)=[(AUCpo/AUCiv)×(Doseiv/Dosepo)×100]
In the above Equation, AUCpo refers to an area under the blood concentration time curve (AUC) after per oral administration, AUCiv means an AUC after the intravenous injection; Doseiv refers to a dose of the intravenous injection; and Dosepo refers to a dose of the per os.

The target of the next data set is T1, beta-amyloid 42 (Aβ42) (Homo sapiens, UniProt P05067).
T1 construct: Beta-amyloid 42 (Aβ42) was dissolved in dimethylsulfoxide (DMSO) to form a 250 mM Aβ42 stock solution
T1 sequence (P05067 672-713 limits assumed): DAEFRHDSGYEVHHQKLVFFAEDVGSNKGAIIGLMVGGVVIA
As to the kind of experiment: Inhibitory effect on the formation of beta-amyloid fibrils in vitro (ThT fluorescence assay). It is filed as biochemical. The method, then:
Beta-amyloid 42 (Aβ42) was dissolved in dimethylsulfoxide (DMSO) to form a […] Aβ42 stock solution. In addition, ThT (thioflavin T) was dissolved in distilled water to obtain a concentration of 1 mM and subsequently diluted with 50 mM glycin buffer (pH 8.5) to yield a 5 μM ThT stock solution. 45 μL of PBS (phosphate buffer saline, pH 7.4) was added to each of a 96-well fluorescence microplate (white, F-bottom). 5 μL of the 250 μM Aβ42 stock solution was added to each well. The final concentration of each compound obtained in Examples was in a range of 10 to 0.001 μM by adding 2 μL of a solution, which was prepared by dissolving the subject compounds obtained in Examples in DMSO, to each well. At this time, the final concentration of Aβ42 in each well was 25 μM. The plate was then incubated for 1 hr at room temperature, and 150 μL of the 5 μM ThT stock solution was added to each well.
The fluorescence intensity of each well was determined with the multi-label fluorescence counter (LS-55 Luminescence spectrometer: Perkin Elmer) at an excitation wavelength of 450 nm (excitation slit width: 10 nm) and an emission wavelength of 482 nm (emission slit width: 10 nm), while adjusting counting time to 1 second. The control group was prepared by adding PBS solution, Aβ42 and DMSO, without adding the inventive compound prepared above. A percent inhibition on the formation of beta-amyloid fibrils was calculated in accordance with the following equation, and IC50 was calculated by using GraphPad Prism version 4.03 Program.
% Inhibition=[1−(C−D)/(A−B)]×100
A (control group)=fluorescence intensity in a group treated with PBS solution, Aβ42 and DMSO
B (blank)=fluorescence intensity in a group treated with PBS solution and DMSO
C (experimental group)=fluorescence intensity in a group treated with PBS solution, Aβ42, the inventive compound and DMSO
D (compensation value to the experimental group) =fluorescence intensity in a group treated with PBS solution, the inventive compound and DMSO

The nature of data set [2]: Passage test through the blood-brain barrier (brain tissue concentration). It is filed as in vivo, ICR mice and SD rats. The settings on record: for Kp: brain. On the procedure: Three 7 week-old ICR mice (weight: approximately 30 g) and three 8 week-old SD rats (weight: approximately 250 g) were used per test group. A solution prepared by dissolving a hydrochloride salt of the compound of Example 3 in excipient (DMSO/Tween 20/saline: 0.1/0.6/2.3, v/v/v) was administered to each experimental animal. The test compound was intravenously administered in an amount of 5 mL per kg of body weight through the fine vein or orally administered in an amount of 10 mL per kg of body weight.
At 0.5, 1, 2, 4, 10 and 24 hrs after the administration of the test compound, the mice and rats were subjected to insufflations narcosis using isoflorane, followed by cutting the abdomen open. Subsequently, 1 mL of blood was collected from abdominal veins into the tube containing heparin (1000 IU/mL, 3 μL). The obtained blood samples were centrifuged for 2 min at 12,000 rpm to obtain plasma. The obtained plasmas were kept in a freezer at −80° C. until the analysis.
The mice and rats from which the blood samples were obtained were subjected to bloodletting, and then, the brain tissues of the mice and rats was collected. The brain tissue thus obtained was washed with physiological saline 1 or 2 times to remove blood. The weight of the brain tissue was measured after the removal of adipose tissue and peripheral tissue. 4% bovine serum albumin (BSA) solution diluted with 10-fold was added to the brain tissue. The resulting solution was subjected to homogenization using a homogenizer. The diluted homogenate thus obtained was placed in 2 mL tube and was kept in a freezer at −80° C. until the analysis. All of the treatments to the sample were performed in ice.
50 μL of plasma was placed in a 2.0 mL tube with a cap (Eppendorf Co.). An internal standard solution and 1 mL of ethyl acetate as an extract solvent were added to the resulting solution. The resulting solution was mixed by using thermomixer (Eppendorf Co.) for 5 min at 1400 rpm, and then subjected to centrifugation (Eppendorf Co.). The supernatant was collected and concentrated at 35° C. by using a cyclone. The residue was re-dissolved in 50 μL of mobile phase and 5 μL of the resulting solution was injected into LC/MS and analyzed.
as §1

A short description of data set [3]: Pharmacokinetics test in mice (dose-dependent). It is filed as in vivo, ICR mice. The settings on record: for AUC ratio / Cmax ratio / AUC / Cmax / Tmax / half-life: po; for AUC / Cmax / Tmax / half-life: ICR, mouse, plasma. On the procedure: Two 6 week-old ICR mice (weight: approximately 25 g) were used per test group. A solution prepared by dissolving the compound of Example 3 in distilled water was administered to each experimental animal. The test compound was orally administered in an amount of 10 mL per kg of body weight.
At 0.5, 1, 2, 4, 10 and 24 hrs after the oral administration of the test compound, the blood was collected from jugular veins into a tube containing heparin (1,000 IU/mL, 3 μL). The obtained plasmas were centrifuged (12,000 rpm, 2 min, Eppendorf), and contained in a freezer at −80° C. until analysis.
50 μL of plasma was placed in a 2.0 mL tube with a cap (Eppendorf Co.) and acidified by adding 20 μL of 0.1% formic acid thereto. An internal standard solution and 1 mL of ethyl acetate as an extract solvent were added to the resulting solution. The resulting solution was mixed by using thermomixer (Eppendorf Co.) for 5 min at 1400 rpm, and then subjected to centrifugation (Eppendorf Co.). The supernatant was collected and concentrated at 35° C. by using a cyclone. The residue was re-dissolved in 50 μL of mobile phase and 5 μL of the resulting solution was injected into LC/MS and analyzed.
In Table 4, “po” refers to per oral; “AUC plasma” refers to an area under the plasma level-time curve; “Cmax” refers to a maximum plasma concentration; and “Tmax” refers to a time to reach Cmax.

Where two headings read alike, the source gives them in different places.

As usually defined, the AUC is concentration integrated over time. Lower therefore signals less exposure. The term Cmax denotes the peak of the concentration-time curve. The Tmax is the time at which the peak concentration occurs. In general, inhibition refers to the percentage by which the read-out fell short of the control. Read a high inhibition as a response far below the control. On to `CN(C)CCCOc1ccc2cc(/C=C/c3ccc(N(C)C)cc3)oc2c1.Cl` [Example 23, (E)-6-(3-dimethylaminopropoxy)-2-(4-dimethylaminostyryl)benzofuran hydrochloride], for which the BA in data set [1] (10.0 mg/kg po vs 5.0 mg/kg iv) worked out at 43.4%. Further, the AUC in data set [1] (plasma, 5.0 mg/kg, iv, n = 3) was 535 ng·h/mL. Further, in data set [1] (plasma, 10.0 mg/kg, po, n = 3), the AUC worked out at 472 ng·h/mL, the highest concentration (Cmax) is 62.7 ng/mL and the Tmax was 4 h. Moreover, the “Aβ42 % inhibition compared with comparative compound curcumin” value at beta-amyloid 42 (Aβ42) (10 μM) is “equal to or greater than that of the comparative compound, curcumin”. The molecule further returned an inhibition at 10 µM against beta-amyloid 42 (Aβ42) (10 μM compound, 25 μM Aβ42, ThT fluorescence) of no less than 70%. In data set [2] (5.0 mg/kg, iv, brain tissue), the “AUC Brain” value is listed as 54,114.7 ng · h/ml. Moreover, in data set [2] (10.0 mg/kg, po, brain tissue), the “AUC Brain” value was 27,412 ng · h/ml, the “Cmax (brain)” value is 3,828 ng/ml and the Tmax is 10 h. In addition, in data set [2] (5.0 mg/kg, iv, read-out: AUCBrain/AUCPlasma), the Kp came to 101. In data set [2] (10.0 mg/kg, po, read-out: AUCBrain/AUCPlasma), the Kp stood at 58.1.
As usually defined, the half-life is the time in which the quantity being followed falls by half. Low values mean fast loss, high ones slow loss. `CN(C)CCCOc1ccc2cc(/C=C/c3ccc(N(C)C)cc3)oc2c1` [Example 3, (E)-6-(3-dimethylaminopropoxy)-2-(4-dimethylaminostyryl)benzofuran]: the Kp in data set [2] (read-out: passage ability compared with plasma (blood-brain barrier)) is no less than 1. Also, the AUC ratio in data set [3] (10 mg/kg, relative to AUC at 10 mg/kg) was 1.0; in data set [3] (10 mg/kg, relative to AUC at 10 mg/kg, listed as Compound of Example 3, 10 mg/kg), 1; in data set [3] (30 mg/kg, AUC (30 mg/kg)/AUC (10 mg/kg)), 4.2; in data set [3] (100 mg/kg, AUC (100 mg/kg)/AUC (10 mg/kg)), 10.4. Moreover, the Cmax ratio in data set [3] (10 mg/kg, relative to Cmax at 10 mg/kg) is 1; in data set [3] (30 mg/kg, Cmax (30 mg/kg)/Cmax (10 mg/kg)), 4.7; in data set [3] (100 mg/kg, Cmax (100 mg/kg)/Cmax (10 mg/kg)), 9.4. Besides, the AUC in data set [3] (10 mg/kg) worked out at 443 ng·h/mL; in data set [3] (30 mg/kg), 1890 ng·h/mL; in data set [3] (100 mg/kg) it was 4580 ng·h/mL. Besides, the peak concentration (Cmax) in data set [3] (10 mg/kg) turned out to be 40.4 ng/mL; in data set [3] (30 mg/kg), 188 ng/mL; in data set [3] (100 mg/kg), 378 ng/mL. The Tmax in data set [3] (10 mg/kg) was 0.5 h; in data set [3] (30 mg/kg), 2 h; in data set [3] (100 mg/kg), 4 h. Also, the values for the half-life in data set [3] (10 mg/kg), in data set [3] (30 mg/kg) and in data set [3] (100 mg/kg) were 4.9 h, 5.4 h and 23.5 h, respectively. The “dose-dependence of pharmacokinetics (linearity)” value in data set [3] (oral 10, 30 and 100 mg/kg) is given as “linear pharmacokinetics”.
